Experimental data published in ChEMBL document CHEMBL6120947, “Synthesis and Antiosteoporotic Characterization of Diselenyl Maleimides: Discovery of a Potent Agent for the Treatment of Osteoporosis by Targeting RANKL” (J Med Chem, 2024).
The source made the active and inactive calls. The rule behind the calls is not given here.

How the values were obtained:
BMDM [1] = experiment: Inhibition of osteoclastogenesis in M-CSF/RANKL-induced osteoclast differentiation in C57BL/6J mouse BMDM cells at 1 uM measured for 1 to 3 days by TRAP staining based analysis; assay type: functional, cell-based; conditions: time 1-3 day
RAW264.7 [2] = experiment: Inhibition of osteoclastogenesis in RANKL-induced osteoclast differentiation in mouse RAW264.7 cells incubated for 4 days by TRAP staining based analysis; assay type: functional, cell-based; conditions: time 4.0 day
RAW264.7 [3] = experiment: Cytotoxicity against mouse RAW264.7 cells assessed as decrease in cell viability at 1 uM incubated for 48 hrs by MTT assay; assay type: toxicity, cell-based; conditions: raw264.7, 48 h
BMDM [4] = experiment: Inhibition of osteoclastogenesis in M-CSF/RANKL-induced osteoclast differentiation in C57BL/6J mouse BMDM cells assessed as suppression of multinucleated osteoclasts formation incubated for 6 days by TRAP staining based analysis; assay type: functional, cell-based
BMDM [5] = experiment: Inhibition of osteoclastogenesis in M-CSF/RANKL-induced osteoclast differentiation in C57BL/6J mouse BMDM cells assessed as decrease in NFATc1 mRNA level at 1 uM measured for 5 days by qRT-PCR analysis; assay type: functional, cell-based; conditions: time 5.0 day
BMDM [6] = experiment: Inhibition of osteoclastogenesis in M-CSF/RANKL-induced osteoclast differentiation in C57BL/6J mouse BMDM cells assessed as decrease in NFATc1 level at 1 uM measured for 5 days by Western blot analysis; assay type: functional, cell-based; conditions: time 5.0 day
BMDM [7] = experiment: Inhibition of osteoclastogenesis in M-CSF/RANKL-induced osteoclast differentiation in C57BL/6J mouse BMDM cells assessed as suppression of osteoclast size measured after 7 days by F-actin ring-TRITC phalloidin staining based analysis; assay type: functional, cell-based; conditions: dose <= 2.0 µM, time 7.0 day
BMDM [8] = experiment: Inhibition of osteoclastogenesis in M-CSF/RANKL-induced osteoclast differentiation in C57BL/6J mouse BMDM cells assessed as suppression of osteoclast nuclei number measured after 7 days by F-actin ring-TRITC phalloidin staining based analysis; assay type: functional, cell-based; conditions: dose <= 2.0 µM, time 7.0 day
BMDM [9] = experiment: Inhibition of osteoclastogenesis in M-CSF/RANKL-induced osteoclast differentiation in C57BL/6J mouse BMDM cells assessed as reduction in bone resorption area measured after 6 days by hydroxyapatite resorption assay; assay type: functional, cell-based; conditions: dose <= 2.0 µM, time 6.0 day
BMDM [10] = experiment: Inhibition of osteoclastogenesis in M-CSF/RANKL-induced osteoclast differentiation in C57BL/6J mouse BMDM cells assessed as reduction in MMP-9 mRNA level measured after 5 days by qRT-PCR analysis; assay type: functional, cell-based; conditions: dose <= 2.0 µM, time 5.0 day
BMDM [11] = experiment: Inhibition of osteoclastogenesis in M-CSF/RANKL-induced osteoclast differentiation in C57BL/6J mouse BMDM cells assessed as reduction in cathepsin K mRNA level measured after 5 days by qRT-PCR analysis; assay type: functional, cell-based; conditions: dose <= 2.0 µM, time 5.0 day
BMDM [12] = experiment: Inhibition of osteoclastogenesis in M-CSF/RANKL-induced osteoclast differentiation in C57BL/6J mouse BMDM cells assessed as reduction in c-Fos level measured after 5 days by Western blot analysis; assay type: functional, cell-based; conditions: dose <= 2.0 µM, time 5.0 day
BMDM [13] = experiment: Inhibition of osteoclastogenesis in M-CSF/RANKL-induced osteoclast differentiation in C57BL/6J mouse BMDM cells assessed as reduction in NFATc1 level measured after 5 days by Western blot analysis; assay type: functional, cell-based; conditions: dose <= 2.0 µM, time 5.0 day
BMDM [14] = experiment: Inhibition of osteoclastogenesis in M-CSF/RANKL-induced osteoclast differentiation in C57BL/6J mouse BMDM cells assessed as reduction in MMP-9 level measured after 5 days by Western blot analysis; assay type: functional, cell-based; conditions: dose <= 2.0 µM, time 5.0 day
BMDM [15] = experiment: Inhibition of osteoclastogenesis in M-CSF/RANKL-induced osteoclast differentiation in C57BL/6J mouse BMDM cells assessed as reduction in JNK phosphorylation at 1 uM measured upto 60 mins by Western blot analysis; assay type: functional, cell-based
BMDM [16] = experiment: Effect in JNK level in M-CSF/RANKL-induced osteoclast differentiation in C57BL/6J mouse BMDM cells at 1 uM measured upto 60 mins by Western blot analysis; assay type: functional, cell-based
BMDM [17] = experiment: Effect in p65 level in M-CSF/RANKL-induced osteoclast differentiation in C57BL/6J mouse BMDM cells at 1 uM measured upto 60 mins by Western blot analysis; assay type: functional, cell-based
BMDM [18] = experiment: Inhibition of osteoclastogenesis in M-CSF/RANKL-induced osteoclast differentiation in C57BL/6J mouse BMDM cells assessed as reduction in I-kappaB-alpha degradation at 1 uM measured upto 60 mins by Western blot analysis; assay type: functional, cell-based
MC3T3-E1 [19] = experiment: Cytotoxicity against mouse MC3T3-E1 cells at 0.5 to 2 uM incubated for 7 days by MTT assay; assay type: toxicity, cell-based; conditions: mc3t3-e1, 168 h, dose 0.5-2 µM, time 7 day
MC3T3-E1 [20] = experiment: Effect on osteoblast differentiation in mouse MC3T3-E1 cells assessed as change in ALP level at 0.5 to 2 uM incubated for 7 days by inverted microscopy; assay type: functional, cell-based; conditions: dose 0.5-2 µM, time 7.0 day
MC3T3-E1 [21] = experiment: Effect on osteoblast mineralization in mouse MC3T3-E1 cells assessed as change in calcium nodules at 0.5 to 2 uM incubated for 7 days by ARS staining based analysis; assay type: functional, cell-based; conditions: dose 0.5-2 µM, time 7.0 day
MC3T3-E1 [22] = experiment: Effect on osteoblast differentiation in mouse MC3T3-E1 cells assessed as change in Runx2 level at 0.5 to 2 uM incubated for 7 days by Western blot analysis; assay type: functional, cell-based; conditions: dose 0.5-2 µM, time 7.0 day
MC3T3-E1 [23] = experiment: Effect on osteoblast differentiation in mouse MC3T3-E1 cells assessed as change in BMP2 level at 0.5 to 2 uM incubated for 7 days by Western blot analysis; assay type: functional, cell-based; conditions: dose 0.5-2 µM, time 7.0 day
[24] = Toxicity in OVX-induced osteoporosis C57BL/6 mouse model assessed as body weight change at 10 mg/kg, po administered every other day for 8 weeks; assay type: organism-based; conditions: in vivo, 1344 h
[25] = Toxicity in OVX-induced osteoporosis C57BL/6 mouse model assessed as pathological change in spleen at 10 mg/kg, po administered every other day for 8 weeks by H and E staining based analysis; assay type: organism-based; conditions: in vivo, 1344 h
[26] = Toxicity in OVX-induced osteoporosis C57BL/6 mouse model assessed as pathological change in lung at 10 mg/kg, po administered every other day for 8 weeks by H and E staining based analysis; assay type: organism-based; conditions: in vivo, 1344 h
Mus musculus [27] = experiment: Anti-osteoporosis effect in OVX-induced osteoporosis C57BL/6 mouse model assessed as reduction in bone mass loss in distal femur at 10 mg/kg, po administered every other day for 8 weeks by micro-CT analysis; assay type: functional, organism-based
Mus musculus [28] = experiment: Anti-osteoporosis effect in OVX-induced osteoporosis C57BL/6 mouse model assessed as increase in BV/TV value at 10 mg/kg, po administered every other day for 8 weeks by micro-CT analysis; assay type: functional, organism-based
Mus musculus [29] = experiment: Anti-osteoporosis effect in OVX-induced osteoporosis C57BL/6 mouse model assessed as increase in Tb.N value at 10 mg/kg, po administered every other day for 8 weeks by micro-CT analysis; assay type: functional, organism-based
Mus musculus [30] = experiment: Anti-osteoporosis effect in OVX-induced osteoporosis C57BL/6 mouse model assessed as decrease in Tb.Sp value at 10 mg/kg, po administered every other day for 8 weeks by micro-CT analysis; assay type: functional, organism-based
[31] = Inhibition of C57BL/6 mouse T cell proliferation upto 2 uM incubated for 5 days by APC-Annexin V staining based analysis; assay type: toxicity; conditions: 120 h, time 5 day

Structure (SMILES): O=C1C([Se]c2ccccc2)=C([Se]c2ccccc2)C(=O)N1Cc1ccccc1
- inhibition (BMDM [1]): Active
- inhibition (RAW264.7 [2]): Active
- Activity (RAW264.7 [3]): Non-toxic
- IC50 (BMDM [4]; 144 h): 360 nM
- inhibition (BMDM [4]; dose <= 2.0 µM, time 6.0 day): Dose-dependent-effect
- inhibition (BMDM [5]): Active
- inhibition (BMDM [6]): Active
- inhibition (BMDM [7]): Dose-dependent-effect
- inhibition (BMDM [8]): Dose-dependent-effect
- inhibition (BMDM [9]): Dose-dependent-effect
- inhibition (BMDM [10]): Dose-dependent-effect
- inhibition (BMDM [11]): Dose-dependent-effect
- inhibition (BMDM [12]): Dose-dependent-effect
- inhibition (BMDM [13]): Dose-dependent-effect
- inhibition (BMDM [14]): Dose-dependent-effect
- inhibition (BMDM [15]): Active
- Activity (BMDM [16]): No effect
- Activity (BMDM [17]): No effect
- inhibition (BMDM [18]): Active
- Activity (MC3T3-E1 [19]): Non-toxic
- Activity (MC3T3-E1 [20]): No effect
- Activity (MC3T3-E1 [21]): No effect
- Activity (MC3T3-E1 [22]): No effect
- Activity (MC3T3-E1 [23]): No effect
- Activity [24]: Non-toxic
- Activity [25]: Non-toxic
- Activity [26]: Non-toxic
- Activity (Mus musculus [27]): Active; Displayed Similar Effect With That Exhibited By Alendronate
- Activity (Mus musculus [28]): Active; Displayed Similar Effect With That Exhibited By Alendronate
- Activity (Mus musculus [29]): Active; Displayed Similar Effect With That Exhibited By Alendronate
- Activity (Mus musculus [30]): Active; Displayed Similar Effect With That Exhibited By Alendronate
- Activity [31]: Non-toxic
